Legend:
[1] = tested on: IL-36α-injected ears of Balb/c mice; assay: Mouse model of IL-36-induced ear thickening (GPP model); type: in vivo; conditions: intradermal IL36 mouse model (Example 1)
Experimental: (§1) For in vivo dosing, mice were dosed subcutaneously with Compound 1.136 once daily (s.c. q.d. in 1% HPMC) at 90 mg/kg unless stated otherwise, starting at day 0 of a study. The in vivo dose was predicted based on in vitro potency and the pharmacokinetic response to a single dose in mice. The minimum antagonist concentration (at trough) to fully cover a gradient-sensing chemoattractant receptor has been determined to correspond with the IC90 concentration (Schall, T. J., and A. E. Proudfoot. 2011. Overcoming hurdles in developing successful drugs targeting chemokine receptors. Nat Rev Immunol 11: 355-363).
Mouse model of IL-36-induced ear thickening. The right ear of 8-week old Balb/c mice received intradermal injections of recombinant murine IL-36α (150 μg per mouse formulated in PBS; BioLegend) every day for 5 days. Intradermal injections of PBS were given to the left ear as a control. Ear thickness was measured prior to start of study and each day thoughout the study using a digital micrometer. The imiquimod model of psoriasiform dermatitis was performed as previously described (Campbell Jet al. J Immunol. 2017; 199(9):3129-36. van der Fits et al. J Immunol 2009; 182(9):5836-45). Briefly, 5% Imiquimod (Fougera®) was applied daily to the shaved and depilated backs of Balb/c mice for up to 4 days. Control mice were treated with an application of Vaseline. Erythema, desquamation, and skin thickening were scored independently on a scale from 0 to 4 where 0=no disease; 1=slight disease; 2=moderate disease; 3=marked disease; 4=very marked disease (Campbell J et al. J Immunol. 2017; 199(9):3129-36. van der Fits et al. J Immunol 2009; 182(9):5836-45). Skin from the backs of mice was excised at the end of the study and processed for flow cytometry analysis,
Mouse anti-IL-17RA. (R&D Systems) was dosed as a positive control at 200-500 μg per mouse, i.p., q.d.

[2] = tested on: CD4 T cells, neutrophils and inflammatory dendritic cells within IL-36-treated skin; assay: Flow cytometry of leukocytes accumulating in IL-36-treated skin; type: in vivo, mouse; conditions: intradermal IL36 mouse model (Example 1)
Experimental: as §1
Flow cytometry of leukocytes. Ears or excised skin samples were digested in collagenase A and 1 U/ml DNAse I with agitation for 30 min at 37° C. Cells were then dislodged from skin, filtered through a […] sieve, washed and re-suspended in FACS buffer (PBS with 10% FBS) for analysis.
Directly conjugated Monoclonal antibodies were from R&D Systems (Minneapolis, Minn.), BioLegend (San Diego, Calif.), or eBioscience/ThermoFisher (San Diego, Calif.). CD45.2 (104) in AlexaFluor488, Ly6C (HK1.4) in PE, CD90.2 (30-H12) in Per CP-Cy5.5, TCRVγ4 (UC3-10A6) in PE-Cy7, TCRβ (H57-597) in APC, CD4 (GK1.5) in APC-eFluor-780, TCRγδ (GL3) in BV-421, LIVE/DEAD fixable Aqua stain (Molecular Probes, Eugene, Oreg.), CD11c (N418) in BV650, Ly6G (1A4) in BV711 and CD11b (M1/70) in BV785. Flow cytometry data were acquired with a Fortessa (BD Biosciences) cytometer and analyzed using FlowJo v10.2

[3] = tested on: imiquimod-treated skin of Balb/c mice; conditions: reported in a previous study; cited from earlier work

CC(C)(C)[C@@H](Nc1c(Nc2ccc(Cl)c3c2C(=O)NC3)c(=O)c1=O)c1ccc(Cl)o1 [Compound 1.129]
IL36-induced inflammation [1]: reduces IL36-induced inflammation | Accumulation of CD4+αβ T cell population in IL36-inflamed skin [2]: preventing accumulation | Inflammation in topical imiquimod-induced model of plaque psoriasis [3]: ameliorates inflammation
